The values that follow come from publication PMC3303619, “In Situ Absorption in Rat Intestinal Tract of Solid Dispersion of Annonaceous Acetogenins” (Gastroenterology Research and Practice, 2012).

Series [1] deals with duodenum, jejunum, ileum, and colon segment. In words: SPIP in different intestinal segments. As to conditions: 300 μg/mL, values are P app × 10^3, mean ± SD, n = 6. It is filed as in vivo, Sprague-Dawley rats. From the text:
The study followed the method described in Li et al. and Dahan and Amidon. Each 10 cm long intestinal segment was isolated as follows: duodenum segment beginning from 1 cm distal to pylorus, jejunum segment beginning from 15 cm away from pylorus, ileum segment beginning at the site 20 cm upwards caecum, while segment colon beginning at the site 2 cm distal to caecum. The above segments were carefully cannulated and ligated with both the ends. Then, each segment was perfused with solution containing different mass of ACGs.
(§1) The effective permeability (K a, P app) of the drug disappearing from the intestinal lumen during the intestinal perfusion was calculated by the steady-state equation: (1) Ka =(1−CoutQout/CinQin)Q/VPapp=[− Qin·ln (CoutQout/CinQin)]/2πrL where the radius of the gut lumen was represented by r, its length by L, and the perfusate flow rate by Q (mL/min). V presents the volume of the tested intestinal. The fraction C out/C in represents the concentration of the drμg leaving the perfused segment (C out) normalized to the concentration entering the segment (C in). The C out values were corrected for net water flux by the gravimetric method.
(§2) Once the intestinal segment reached steady state, subsequent values of C out/C in were used to calculate P app. P app represents the permeability of the compound (cm/s) as determined by the disappearance of the compound from the intestinal lumen. Steady state was assumed to be reached when C out/C in reached a constant value, as determined by direct observation of the data.

A further series deals with T24 bladder cancer cells. Also noted: method as in PMID 16154156. Particulars: cytotoxicity in a Bax- and caspase-3-related pathway; cited from earlier work.
Series [2] is described as follows: Stability of sample solution during storing and preparation (freeze-thaw, room temperature, stock solution). It is filed as physicochemical. Particulars: for Accuracy (mean ± SD)%, Freeze-thaw (three cycles): three freeze (−20°C) and thaw (room temperature) cycles, compared to nominal concentration. Here is the method:
The stability of sample solution was also tested at room temperature and 4°C, respectively, for 24 h. For freeze-thaw stability testing, the samples were determined after three freeze (−20°C) and thaw (room temperature) cycles, and the concentration was compared to their nominal concentration. For the short-term stability, the samples (three replicates at each QC concentration) were extracted and placed at room temperature for 24 h and then injected into the HPLC system for analysis.
Stock solutions of ACGs were stable for at least 30 days when stored at 4°C. No significant change was found after three freeze-thaw cycles and stored at room temperature for 24 h (Table 1).

The subject of a further series is intestinal loop in rats. In words: Single-pass intestinal perfusion (SPIP) in rats at different perfusate concentrations. As to conditions: values are P app × 10^3, mean ± SD, n = 6. It is filed as in vivo, Sprague-Dawley rats. Here is the method: We used male Sprague-Dawley rats weighing 250 ± 20 g for all perfusion studies. The drug solution was prepared by dispersing the ACGs-SD in the K-R buffer solution and installed in the cylinder, which was incubated in at 37°C water bath to maintain temperature.
The in situ SPIP experiment was conducted according to the previously published reports. Firstly, six male Sprague-Dawley rats were placed in respective cages and fasted overnight before the experiment with free access to water. Rats were anesthetized with an intraperitoneal injection of pentobarbital sodium (40 mg/Kg body weight, i.p. injection), restrained in a supine position, and kept at a body temperature of 37°C using infrared lamps.
Bile duct was ligated and the intestinal content was immediately washed away with 37°C saline solution at a flow rate of 5 mL/min, by cannulating polyethylene tubings (3.2 mm diameter) using a peristaltic pump (BT00-100 M, Baoding Longer Precision Pump Co., Ltd., China). The isolated segment, duodenum, jejunum, ileum, and colon were rinsed with physiological saline to clean any residual debris until the out flowing became colorless. Then, the intestinal loop was made by ligating both ends of the intestinal loop from 4 cm below the bile duct opening to a segment above the ileocecum of small intestine of anesthetized rats. Care was taken to handle the small intestine gently in order to maintain an intact blood supply. The whole surgical area was covered with a piece of sterilized gauze wetted with physiological saline solution.
ACGs-SD was dissolved in K-R buffer solution (0.35 g KCl, 1.37 g NaHCO3, 7.8 g NaCl, 0.22 g NaH2PO4, 0.02 g MgCl2, and glucose in 1.48 g/1000 mL purified water, pH 6.5) at a concentration of 200 μg/mL, 300 μg/mL, 500 μg/mL of ACGs, and the solution was administered to the loop via the polyethylene tubing inserted into the loop. At the start of the study, the perfusion buffer containing sample solution was first perfused at a flow rate of 5 mL/min to ensure filling the segment rapidly, and the time was set to zero with the immediate start of the perfusion and the solution volume in circulation was recorded as the 0 min volume. After 10 min, when steady-state condition was achieved, the flow rate was adjusted to 0.2 mL/min, and the outlet perfused samples were collected at time intervals (5, 10, 15, 30, 60, 90, 120 min) for 2 h. During 2 h perfusion period, at each time period, assemble the outlet solution. At the end of the experiment, the length of perfused intestinal segment was measured without stretching.
as §1, §2

Series [3] is described as follows: Stability of ACGs in K-R buffer solution. It is filed as physicochemical. As to conditions: ACGs-SD in K-R buffer, 37°C, n = 3. As to the method: Exact amount of ACGs-SD was dissolved in K-R buffer solution at 37°C in water bath. Chermolin-1, annonacin, squamocin, and annonin-VI were determined at 0, 30, 60, 90, and 120 min to analysis the stability of ACGs in K-R buffer solution.

A short description of series [4]: Solubility studies in distilled water. It is filed as physicochemical. Particulars: 37 °C, thermodynamic from solid, component from ACGs solid dispersion (PEG 4000), 37 ± 0.5°C. Here is the method: Solubility studies were conducted by placing an excess amount of ACGs (approximately 15 mg) and ACG-solid dispersion in 10 mL distilled water, and the mixture was heated at 37 ± 0.5°C in a water bath to facilitate the solubilization using a vortex mixer. Mixtures were equilibrated at 37 ± 0.5°C for 72 h in a water bath. The equilibrated samples were centrifuged at 3000 rpm for 15 min to remove the undissolved material. The supernatant was determined by HPLC.

The subject of a further series is complex I. Also noted: method as in PMID 8037664. As to conditions: mammalian mitochondria; steady-state and nonsteady-state conditions; cited from earlier work.
The subject of the next series is K562 cells. Also noted: method as in PMID 16310807. As to conditions: cited from earlier work.
Setting [5] is: ACGs-SD perfusate concentration 200 μg · mL^−1.
[6] abbreviates: ACGs-SD perfusate concentration 300 μg · mL^−1.
The mark [7] stands for this setting: ACGs-SD perfusate concentration 500 μg · mL^−1.

≈ marks a conversion by molar mass, not a printed value.

`CCCCCCCCCCCC[C@@H](O)[C@H]1CC[C@H]([C@H](O)CCCC[C@H](O)CCCCC[C@@H](O)CC2=CC(C)OC2=O)O1` (some centres unmarked) [Annonacin, annonacin]: the “P app × 10^3” value in series [1] (Duodenum) is on record as 1.36 ± 0.34 cm · s^−1; in series [1] (Ileum), 1.17 ± 0.49 cm · s^−1; in series [1] (Jejunum), 1.38 ± 0.82 cm · s^−1; in series [1] (colon) it was 0.95 ± 0.45 cm · s^−1; in the series on intestinal loop in rats (setting [5]), 1.29 ± 0.12 cm · s^−1; in the series with intestinal loop in rats (setting [6]), 0.92 ± 0.23 cm · s^−1. The “P app × 10^3” value in the series with intestinal loop in rats (setting [7]) is 0.69 ± 0.31 cm · s^−1. Also, the “Effect on cell cycle of T24 bladder cancer cells” value with T24 bladder cancer cells is recorded as “arrest T24 bladder cancer cells at the G1 phase”. Moreover, the “Accuracy (mean ± SD)%, Samples at room temperature for 24 h” value (shortened to “Accuracy (mean ± SD)%, Samples”) in series [2] came out at 96.3 ± 2.1%. For the same molecule, the “Accuracy (mean ± SD)%, Freeze-thaw (three cycles)” value (from here on “Accuracy (mean ± SD)%, Freeze-thaw”) in series [2] is recorded as 96.0 ± 1.0%. The “Stability in K-R buffer solution, remaining” value (“Stability … remaining” for short) in series [3] (time 0 h) is 100%; in series [3] (time 0.5 h), 98.63%; in series [3] (time 1 h), 98.59%; in series [3] (time 2 h), 96.16%. Also, the solubility (in general, the dissolved amount per volume that the medium holds) at 72 h in series [4] came out at 213 µg/mL (≈ 357 µM).
`CCCCCCCCCC[C@H](O)[C@H]1CC[C@H]([C@H]2CC[C@H]([C@H](O)CCCCCCCCCC[C@@H](O)CC3=C[C@H](C)OC3=O)O2)O1` [Annonin-VI, annonin-VI]: the “P app × 10^3” value in series [1] (Duodenum) is 2.28 ± 0.29 cm · s^−1; in series [1] (Ileum), 1.26 ± 0.30 cm · s^−1; in series [1] (Jejunum), 1.87 ± 0.29 cm · s^−1; in series [1] (colon) it was 1.10 ± 0.45 cm · s^−1; with intestinal loop in rats (setting [5]), 0.75 ± 0.37 cm · s^−1; with intestinal loop in rats (setting [6]), 0.75 ± 0.21 cm · s^−1. Further, the “P app × 10^3” value in the series with intestinal loop in rats (setting [7]) was 0.79 ± 0.30 cm · s^−1. Moreover, the “Accuracy (mean ± SD)%, Samples” value in series [2] is listed as 98.3 ± 2.1%. The “Accuracy (mean ± SD)%, Freeze-thaw” value in series [2] is given as 99.3 ± 5.0%. Besides, the “Stability … remaining” value in series [3] (time 0 h) is listed as 100%; in series [3] (time 0.5 h), 95.64%; in series [3] (time 1 h), 99.59%. Also, in the series on complex I, the “Effect on proton pumping function of complex I” value is “inhibited the proton pumping function of complex I”. Besides, in series [4], the solubility at 72 h turned out to be 250 µg/mL (≈ 401 µM).
Consider `CCCCCC[C@H](O)CCC[C@H](O)[C@H]1CC[C@H]([C@H]2CC[C@H]([C@H](O)CCCCCCCCCCCCC3=C[C@H](C)OC3=O)O2)O1` [Squamocin, squamocin], for which, in the series on K562 cells, the “Effect on proliferation of K562 cells” value was “inhibit the proliferation of K562 cells via G2/M arrest”. Also, the “P app × 10^3” value came to 1.24 ± 0.27 cm · s^−1 in series [1] (Duodenum); 1.14 ± 0.31 cm · s^−1 in series [1] (Ileum); 1.30 ± 0.27 cm · s^−1 in series [1] (Jejunum); 1.03 ± 0.19 cm · s^−1 in series [1] (colon); 0.96 ± 0.28 cm · s^−1 in the series with intestinal loop in rats (setting [5]); 0.96 ± 0.27 cm · s^−1 in the series on intestinal loop in rats (setting [6]). Also, in the series on intestinal loop in rats (setting [7]), the “P app × 10^3” value is given as 0.93 ± 0.32 cm · s^−1. Moreover, in series [2], the “Accuracy (mean ± SD)%, Samples” value was found to be 101.3 ± 6.2%. Besides, the “Accuracy (mean ± SD)%, Freeze-thaw” value in series [2] is listed as 101.6 ± 4.2%. The “Stability … remaining” value in series [3] (time 0 h) was found to be 100%; in series [3] (time 0.5 h), 100.51%; in series [3] (time 1 h), 99.86%; in series [3] (time 2 h), 98.58%. The same molecule showed a solubility at 72 h in series [4] of 1080 µg/mL (≈ 1740 µM).
